Data: PubChem BioAssay (NCI)
“And” between values parts separate entries of the source, which are not always exact repeats. Equal values may be shown once.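 Briefly, cells in 96-well plates were exposed to five compound concentrations for 48 h, and endpoints were estimated by linear interpolation. TGI: total growth inhibition.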

Tests used:
Test in all cases: growth of human tumour cells (NCI), 48 h
[1] = system: 786-0 renal
[2] = system: A498 renal
[3] = system: A549 NSCLC
[4] = system: ACHN renal
[5] = system: BT-549 breast
[6] = system: CAKI-1 renal
[7] = system: CCRF-CEM leukemia
[8] = system: COLO 205 colon
[9] = system: DU-145 prostate
[10] = system: EKVX NSCLC
[11] = system: HCC-2998 colon
[12] = system: HCT-116 colon
[13] = system: HCT-15 colon
[14] = system: HL-60(TB) leukemia
[15] = system: HOP-62 NSCLC
[16] = system: HS 578T breast
[17] = system: HT29 colon
[18] = system: IGROV1 ovarian
[19] = system: K-562 leukemia
[20] = system: KM12 colon
[21] = system: M14 melanoma
[22] = system: MALME-3M melanoma
[23] = system: MCF7 breast
[24] = system: MDA-MB-231 breast
[25] = system: MDA-N
[26] = system: MOLT-4 leukemia
[27] = system: NCI-H226 lung
[28] = system: NCI-H23 lung
[29] = system: NCI-H460 lung
[30] = system: NCI-H522 lung
[31] = system: NCI/ADR-RES ovarian
[32] = system: OVCAR-3 ovarian
[33] = system: OVCAR-4 ovarian
[34] = system: OVCAR-5 ovarian
[35] = system: OVCAR-8 ovarian
[36] = system: PC-3 prostate
[37] = system: SF-268 CNS
[38] = system: SF-295 CNS
[39] = system: SF-539 CNS
[40] = system: SK-MEL-2 melanoma
[41] = system: SK-MEL-28 melanoma
[42] = system: SK-MEL-5 melanoma
[43] = system: SK-OV-3 ovarian
[44] = system: SN12C renal
[45] = system: SNB-19 CNS
[46] = system: SNB-75 CNS
[47] = system: SR leukemia
[48] = system: SW-620 colon
[49] = system: T-47D breast
[50] = system: TK-10 renal
[51] = system: U251 CNS
[52] = system: UACC-257 melanoma
[53] = system: UACC-62 melanoma
[54] = system: UO-31 renal
[55] = system: HOP-92 NSCLC
[56] = system: MDA-MB-435
[57] = system: RPMI-8226 leukemia
[58] = system: RXF 393 renal
[59] = system: LOX IMVI melanoma

## CCC(C)(C)c1ccc(OCCCCNC(=O)c2ccc3ccccc3c2O)c(C(C)(C)CC)c1
[1]
  TGI: 93.5 µM
[2]
  TGI: > 100 µM
[3]
  TGI: > 100 µM
[4]
  TGI: > 100 µM
[5]
  TGI: 82.5 µM
[6]
  TGI: > 100 µM
[7]
  TGI: > 100 µM
[8]
  TGI: 34.2 µM
[9]
  TGI: > 100 µM
[10]
  TGI: 87.9 µM
[11]
  TGI: > 100 µM
[12]
  TGI: > 100 µM
[13]
  TGI: 28.5 µM
[14]
  TGI: > 100 µM
[15]
  TGI: > 100 µM
[16]
  TGI: > 100 µM
[17]
  TGI: > 100 µM
[18]
  TGI: > 100 µM
[19]
  TGI: > 100 µM
[20]
  TGI: > 100 µM
[21]
  TGI: > 100 µM
[22]
  TGI: > 100 µM
[23]
  TGI: > 100 µM
[24]
  TGI: > 100 µM
[25]
  TGI: > 100 µM
[26]
  TGI: > 100 µM
[27]
  TGI: 44.7 µM
[28]
  TGI: > 100 µM
[29]
  TGI: > 100 µM
[30]
  TGI: 91.2 µM
[31]
  TGI: > 100 µM
[32]
  TGI: 73.2 µM
[33]
  TGI: > 100 µM
[34]
  TGI: > 100 µM
[35]
  TGI: > 100 µM
[36]
  TGI: 49.7 µM
[37]
  TGI: > 100 µM
[38]
  TGI: > 100 µM
[39]
  TGI: > 100 µM
[40]
  TGI: 62 µM
[41]
  TGI: > 100 µM
[42]
  TGI: 71.4 µM
[43]
  TGI: > 100 µM
[44]
  TGI: > 100 µM
[45]
  TGI: > 100 µM
[46]
  TGI: > 100 µM
[47]
  TGI: > 100 µM
[48]
  TGI: 87 µM
[49]
  TGI: > 100 µM
[50]
  TGI: 80 µM
[51]
  TGI: > 100 µM
[52]
  TGI: > 100 µM
[53]
  TGI: 92.4 µM
[54]
  TGI: > 100 µM

## Cc1c(O)nc(-n2[nH]c3c(c2=O)CCCC3)[nH]c1=O
[1]
  TGI: > 100 µM
[2]
  TGI: > 100 µM
[4]
  TGI: > 100 µM
[5]
  TGI: > 100 µM
[6]
  TGI: > 100 µM
[7]
  TGI: > 100 µM
[8]
  TGI: > 100 µM
[9]
  TGI: > 100 µM
[10]
  TGI: > 100 µM
[12]
  TGI: > 100 µM
[13]
  TGI: > 100 µM
[14]
  TGI: > 100 µM
[55]
  TGI: > 100 µM
[16]
  TGI: > 100 µM
[17]
  TGI: > 100 µM
[18]
  TGI: > 100 µM
[19]
  TGI: > 100 µM
[20]
  TGI: > 100 µM
[21]
  TGI: > 100 µM
[22]
  TGI: > 100 µM
[24]
  TGI: > 100 µM
[56]
  TGI: > 100 µM
[25]
  TGI: > 100 µM
[26]
  TGI: > 100 µM
[27]
  TGI: > 100 µM
[28]
  TGI: > 100 µM
[29]
  TGI: > 100 µM
[30]
  TGI: > 100 µM
[31]
  TGI: > 100 µM
[33]
  TGI: > 100 µM
[34]
  TGI: > 100 µM
[35]
  TGI: > 100 µM
[36]
  TGI: > 100 µM
[57]
  TGI: > 100 µM
[58]
  TGI: > 100 µM
[37]
  TGI: > 100 µM
[38]
  TGI: > 100 µM
[40]
  TGI: > 100 µM
[41]
  TGI: > 100 µM
[42]
  TGI: > 100 µM
[43]
  TGI: > 100 µM
[44]
  TGI: > 100 µM
[45]
  TGI: > 100 µM
[47]
  TGI: > 100 µM
[48]
  TGI: > 100 µM
[49]
  TGI: > 100 µM
[50]
  TGI: > 100 µM
[51]
  TGI: > 100 µM
[52]
  TGI: > 100 µM
[53]
  TGI: > 100 µM
[54]
  TGI: > 100 µM

## CCOS(C)(=O)=O
[1]
  TGI: > 100 µM
[2]
  TGI: > 100 µM
[3]
  TGI: > 100 µM
[4]
  TGI: > 100 µM
[5]
  TGI: > 100 µM
[6]
  TGI: > 100 µM
[7]
  TGI: > 100 µM
[8]
  TGI: > 100 µM
[9]
  TGI: > 100 µM
[10]
  TGI: > 100 µM
[11]
  TGI: > 100 µM
[12]
  TGI: > 100 µM
[13]
  TGI: > 100 µM
[14]
  TGI: > 100 µM
[55]
  TGI: 30.7 µM
[16]
  TGI: > 100 µM
[17]
  TGI: > 100 µM
[18]
  TGI: > 100 µM
[19]
  TGI: > 100 µM
[20]
  TGI: > 100 µM
[59]
  TGI: > 100 µM
[21]
  TGI: > 100 µM
[22]
  TGI: > 100 µM
[23]
  TGI: > 100 µM
[24]
  TGI: > 100 µM
[56]
  TGI: > 100 µM
[25]
  TGI: > 100 µM
[26]
  TGI: > 100 µM
[27]
  TGI: > 100 µM
[28]
  TGI: > 100 µM
[29]
  TGI: > 100 µM
[30]
  TGI: > 100 µM
[31]
  TGI: > 100 µM
[32]
  TGI: > 100 µM
[33]
  TGI: > 100 µM
[34]
  TGI: > 100 µM
[35]
  TGI: > 100 µM
[36]
  TGI: > 100 µM
[58]
  TGI: > 100 µM
[37]
  TGI: > 100 µM
[38]
  TGI: > 100 µM
[39]
  TGI: > 100 µM
[40]
  TGI: > 100 µM
[41]
  TGI: > 100 µM
[42]
  TGI: > 100 µM
[43]
  TGI: > 100 µM
[44]
  TGI: > 100 µM
[45]
  TGI: > 100 µM
[48]
  TGI: > 100 µM
[49]
  TGI: > 100 µM
[50]
  TGI: > 100 µM
[51]
  TGI: > 100 µM
[52]
  TGI: > 100 µM
[53]
  TGI: > 100 µM
[54]
  TGI: > 100 µM

## CNc1cc2c(c3ccccc13)C(CCl)CN2C(=O)c1cc2cc(OC)c(OC)c(OC)c2[nH]1 (stereo unspecified)
[1]
  TGI: 0.00346 µM
[2]
  TGI: 0.00762 µM
[3]
  TGI: > 100 µM
[4]
  TGI: 0.00154 µM
[5]
  TGI: 0.0333 µM
[6]
  TGI: 0.00431 µM and 0.022 µM
[7]
  TGI: 0.142 µM
[8]
  TGI: 0.0114 µM
[10]
  TGI: 0.0155 µM
[14]
  TGI: 0.000667 µM
[15]
  TGI: 0.0319 µM
[55]
  TGI: 0.0466 µM
[16]
  TGI: 0.0379 µM
[17]
  TGI: 0.168 µM
[18]
  TGI: 0.128 µM
[20]
  TGI: 0.103 µM
[59]
  TGI: 0.00811 µM
[23]
  TGI: 0.131 µM
[56]
  TGI: 0.0131 µM
[25]
  TGI: 0.00856 µM
[26]
  TGI: 0.023 µM
[27]
  TGI: 0.067 µM
[28]
  TGI: 0.00191 µM
[29]
  TGI: 0.00226 µM
[31]
  TGI: 0.0156 µM
[32]
  TGI: 1.32 µM
[35]
  TGI: 0.0124 µM
[36]
  TGI: 0.0223 µM and 0.116 µM
[57]
  TGI: 0.0649 µM
[40]
  TGI: 0.0197 µM
[41]
  TGI: 0.0351 µM
[42]
  TGI: 0.00435 µM
[43]
  TGI: 0.894 µM and 0.982 µM
[44]
  TGI: 0.00628 µM and 0.0118 µM
[45]
  TGI: 0.107 µM
[46]
  TGI: 0.00802 µM
[47]
  TGI: 0.00402 µM
[48]
  TGI: 0.00733 µM
[49]
  TGI: 0.0756 µM and 0.405 µM
[51]
  TGI: 0.133 µM
[53]
  TGI: 0.00209 µM
